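Tested at 5 concentrations; 48 h exposure; 96-well plates; endpoints linearly interpolated, else capped at highest concentration. GI50 marks 50% less growth. Definition used: TGI = concentration required for complete inhibition of growth.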 Some results are limits rather than exact numbers.

Some test systems named below: T-47D breast; SNB-19 CNS; NCI-H522 lung; COLO 205 colon; MDA-MB-435; K-562 leukemia; HOP-62 NSCLC; CAKI-1 renal.
Holding throughout (assay): inhibition of tumour cell growth, NCI panel, 48 h

Regarding `CC/C(=C\c1ccc(N(C)C)cc1)c1ccncc1`, the GI50 is 4.16 µM in the assay with T-47D breast; 9.09 µM with SNB-19 CNS; 5.05 µM in the assay with NCI-H522 lung; 3.94 µM in the assay on COLO 205 colon; 1.68 µM with MDA-MB-435; 3.78 µM in the assay with K-562 leukemia. Besides, the GI50 in the assay with HOP-62 NSCLC was 4.33 µM; in the assay on CAKI-1 renal, 3.42 µM. The TGI in the assay on T-47D breast was more than 100 µM; with SNB-19 CNS it was more than 100 µM; in the assay on NCI-H522 lung it was more than 100 µM; with COLO 205 colon, 21.1 µM; with MDA-MB-435 it was 7.51 µM; with K-562 leukemia, more than 100 µM. Also, the TGI in the assay on HOP-62 NSCLC was 33.7 µM; in the assay on CAKI-1 renal, more than 100 µM.
`N/C(=N\O)c1cn(C2OC(CO)C(O)C2O)c2ncnc(N)c12` (stereo not drawn): the GI50 in the assay with T-47D breast is 0.108 µM; with SNB-19 CNS it was 0.301 µM; with NCI-H522 lung, 0.157 µM; in the assay on COLO 205 colon, 0.131 µM; in the assay with MDA-MB-435, 0.0758 µM; in the assay with K-562 leukemia, 0.281 µM. The GI50 in the assay with HOP-62 NSCLC is 0.468 µM; with CAKI-1 renal, 0.132 µM. Also, the TGI in the assay with SNB-19 CNS was more than 100 µM; in the assay with NCI-H522 lung, 0.401 µM; with COLO 205 colon, 0.601 µM; with MDA-MB-435, 0.263 µM; with K-562 leukemia it was more than 100 µM; in the assay with HOP-62 NSCLC, more than 68.7 µM. This compound also came in with a TGI in the assay on CAKI-1 renal of 13.1 µM.
Turning to `Nc1nc(-c2ccccn2)c(-c2ccc3ncccc3n2)s1`, the GI50 in the assay on T-47D breast, with SNB-19 CNS, with NCI-H522 lung, in the assay on COLO 205 colon, in the assay on MDA-MB-435 and in the assay on K-562 leukemia was more than 25 µM throughout. Moreover, the GI50 in the assay on HOP-62 NSCLC and in the assay with CAKI-1 renal was more than 25 µM each time. Further, the TGI with T-47D breast, in the assay on SNB-19 CNS, in the assay with NCI-H522 lung, in the assay on COLO 205 colon, in the assay with MDA-MB-435 and in the assay on K-562 leukemia was more than 25 µM each time. Also, the TGI in the assay on HOP-62 NSCLC and in the assay on CAKI-1 renal was more than 25 µM in each case.
As to `CC(C)c1c(C(=O)Nc2ccccc2)c(-c2ccccc2)c(-c2ccc(F)cc2)n1CC[C@@H](O)C[C@@H](O)CC(=O)O`, the GI50 in the assay with T-47D breast was 32.1 µM; with SNB-19 CNS, 10.5 µM; in the assay on NCI-H522 lung it was 3.73 µM; with COLO 205 colon, 24.5 µM; with MDA-MB-435, 15.1 µM; in the assay on K-562 leukemia, 31.2 µM. Also, the GI50 in the assay on HOP-62 NSCLC is 36 µM; in the assay with CAKI-1 renal, 11.9 µM. For the same compound, the TGI in the assay on T-47D breast was more than 100 µM; in the assay on SNB-19 CNS, more than 100 µM; in the assay with NCI-H522 lung it was more than 47.3 µM; in the assay with COLO 205 colon, more than 78.9 µM; with MDA-MB-435, more than 100 µM; in the assay with K-562 leukemia, more than 100 µM. Further, the TGI was more than 100 µM in the assay with HOP-62 NSCLC and 32.8 µM in the assay on CAKI-1 renal.
`N#CSc1c[nH]c2cccc(/C=C/C(=O)/C=C(O)/C=C/c3cccc4[nH]cc(SC#N)c34)c12`: the GI50 is 0.173 µM with T-47D breast; 0.649 µM in the assay on SNB-19 CNS; 0.093 µM with NCI-H522 lung; 0.423 µM in the assay on COLO 205 colon; 0.542 µM with MDA-MB-435; 0.148 µM in the assay on K-562 leukemia. For the same compound, the GI50 with HOP-62 NSCLC is 1.15 µM; in the assay on CAKI-1 renal, 0.609 µM. The TGI with T-47D breast is 2.27 µM; in the assay on SNB-19 CNS it was 3.2 µM; in the assay on NCI-H522 lung, 0.47 µM; with COLO 205 colon, 1.07 µM; in the assay with MDA-MB-435 it was 1.42 µM; in the assay on K-562 leukemia, more than 33.3 µM. Also, the TGI in the assay with HOP-62 NSCLC turned out to be 4.35 µM; in the assay with CAKI-1 renal, 1.56 µM.
As for `C=C(CN1CCc2ccccc2C1)c1ccc(C(=O)Nc2cccc(N)c2)cc1`, the GI50 with T-47D breast was 27.3 µM; with SNB-19 CNS, 35.9 µM; in the assay on NCI-H522 lung, 18 µM; in the assay with COLO 205 colon, 20.7 µM; with MDA-MB-435 it was 14 µM; in the assay with K-562 leukemia, 7.53 µM. Also, the GI50 was 25.6 µM in the assay on HOP-62 NSCLC and 16.3 µM with CAKI-1 renal. Moreover, the TGI with T-47D breast was more than 100 µM; in the assay on SNB-19 CNS it was more than 100 µM; in the assay on NCI-H522 lung, 40.2 µM; in the assay with COLO 205 colon it was 45.5 µM; in the assay with MDA-MB-435, 31.9 µM; in the assay with K-562 leukemia it was 30 µM. The results for the TGI with HOP-62 NSCLC and in the assay with CAKI-1 renal were 68.4 µM and 45.1 µM, respectively.
Take `Cc1ccccc1C1N=C2Oc3ccccc3C=C2C(=O)N1` (stereo not drawn): the GI50 in the assay with T-47D breast is 1.58 µM; in the assay with SNB-19 CNS it was more than 42.9 µM; with NCI-H522 lung, 0.556 µM; in the assay with COLO 205 colon, 1.46 µM; in the assay on MDA-MB-435 it was 0.244 µM; in the assay with K-562 leukemia it was 4.01 µM. Moreover, the GI50 in the assay with HOP-62 NSCLC is 3.39 µM; in the assay on CAKI-1 renal, 5.46 µM. Besides, the TGI with T-47D breast was more than 100 µM; in the assay with SNB-19 CNS it was more than 100 µM; in the assay with NCI-H522 lung it was 3.32 µM; in the assay on COLO 205 colon, 15 µM; in the assay with MDA-MB-435, 0.824 µM; in the assay with K-562 leukemia, more than 100 µM. Besides, the TGI in the assay on HOP-62 NSCLC and with CAKI-1 renal was more than 100 µM each time.
Regarding `OC1(c2ccccc2)c2ccccc2N(c2ccccc2)c2ccc(Cl)cc21` (stereo not drawn), the GI50 in the assay with T-47D breast was 0.103 µM; in the assay with SNB-19 CNS, 0.378 µM; with NCI-H522 lung it was 0.161 µM; in the assay on COLO 205 colon, 0.147 µM; in the assay with MDA-MB-435, 0.213 µM; with K-562 leukemia, 0.18 µM. Also, the GI50 in the assay on HOP-62 NSCLC was 0.328 µM; in the assay on CAKI-1 renal, 0.257 µM. Also, the TGI in the assay with T-47D breast turned out to be 0.282 µM; with SNB-19 CNS, 1.45 µM; in the assay with NCI-H522 lung, 0.433 µM; with COLO 205 colon, 0.338 µM; with MDA-MB-435 it was 0.631 µM; with K-562 leukemia it was 1.14 µM. For the same compound, the TGI in the assay on HOP-62 NSCLC is 1.23 µM; with CAKI-1 renal, 0.779 µM.
For the compound `FC(F)(F)c1ccc(-c2cnc(-c3nn[nH]n3)nc2NC2CCCCCC2)cc1`, the GI50 with T-47D breast, with SNB-19 CNS, in the assay with NCI-H522 lung, in the assay with COLO 205 colon, in the assay with MDA-MB-435 and in the assay with K-562 leukemia was more than 10 µM throughout. Further, the GI50 in the assay on HOP-62 NSCLC and with CAKI-1 renal was more than 10 µM throughout. For the same compound, the TGI in the assay on T-47D breast, in the assay on SNB-19 CNS, with NCI-H522 lung, in the assay with COLO 205 colon, in the assay with MDA-MB-435 and in the assay with K-562 leukemia was more than 10 µM in each case. Further, the TGI in the assay on HOP-62 NSCLC and in the assay on CAKI-1 renal was more than 10 µM each time.
